Laboratory results taken from patent US20250129021A1, “SMALL MOLECULE PROTEIN SYNTHESIS MODULATORS” (Interdict Bio, Inc., priority 2023, published 2025).

Tests used:
Format in all cases: biochemical
MYC = assay: In vitro transcription-translation (IVTT) assay, MYC reporter; details: IVTT assay, HeLa S3 lysate, MYC reporter, normalized sfGFP/mCherry ratio; half-log dilutions 30 μM-0.1 μM, 2 hrs at 30° C.
Description: (§1) All reporter constructs have been cloned into the pT7CFE1-CHis plasmid (ThermoFisher #88860) using Gibson assembly procedures (NEB #E2611L). The parental pT7CFE1-CHis plasmid contains an EMCV IRES at the 5′UTR for translation initiation, a multiple-cloning site (MCS) for gene insertion, an optional C-terminal His-epitope tag, and polyA sequence in the 3′UTR to regulate mRNA stability. All reporters are designed to be inserted at the MCS to include a red fluorescent protein (mCherry), P2A self-cleaving peptide which releases the preceding mCherry protein product, and a fusion open reading frame containing a 3×FLAG epitope, a peptide sequence of interest (TEST), and green fluorescent protein (sfGFP).
(§2) Construct Plasmid Preparation: All plasmids are isolated from MACH1 cells (ThermoFisher) grown overnight in ampicillin-containing luria broth, and purified using ZymoPure Express Plasmid Midiprep Kit (Zymo Research). Constructs are sequenced verified and diluted to a working concentration of 110 ng/μL.
(§3) HeLa S3 Lysate Preparation: HeLa S3 cell pellets are acquired from Ipracell/Ipratech (Belgium) and shipped as 4 mL frozen cell pellets on dry ice for storage at −80° C. until use. The procedure for lysate preparation is as follows. Prepare 1× Lysis Buffer, cold and stored on ice:
(§4) Each preparation takes 8 cell pellets (4 ml packed volume each, approximately 1.0×10^9 cells per pellet). Thaw cell pellets from −80° C. on ice for 90 mins. Lay pellets horizontally on top of the ice and rotate every 30 mins to ensure even thawing. Once thawed, add 4 mL of cold lysis buffer to each pellet, and using a serological pipet, gently pipet up and down to break up clumps. Incubate resuspended cells in ice for an additional 30 mins (plunged into ice). During 30 min incubation, rinse and RNase-zap (Ambion) glass dounces (use loose pestle “A”), gently dry and place on ice until needed. Prepare RNase-free Eppendorf tubes for spinning and for batch storage. Add batch labels to 1.5-1.7 mL RNase-free microcentrifuge tubes (labeling scheme below). Each batch will have an extra 1.5-1.7 mL RNase-free microcentrifuge tube for 40 μL of lysate, label the top of this tube (labeling scheme below). After 30 min incubation, transfer all 8 mL of cell pellet to dounce. Cell lysis is complete after douncing 100 times. Aliquot cell lysis into 1.5-1.7 mL temporary-microcentrifuge tubes. Place tubes in centrifuge with “fins” out, and spin at 1,200×g for 5 mins. After the first spin use a 1 mL pipet to resuspend each tube and repeat spin. This acts as an additional lysis step, is more vigorous and increases lysate yield. During second spin get liquid N2 and a fresh conical tube on ice. After spin is complete, transfer supernatant (lysate) from microcentrifuge tubes into the 50 mL conical tube and keep on ice. Repeat steps 10-14 for all other cell pellets until completed. Once all cell lysate has been transferred to the 50 mL conical tube pipet to mix so the solution is homogenous. Transfer 1 mL of lysate into batch-labeled microcentrifuge tubes and flash freeze in liquid nitrogen. Be sure to pipet up and down to mix throughout transfer step. Place all tubes in the […] for long-term storage.
(§5) In vitro transcription-translation assay setup: Each assay includes a master mix containing lysate and shared components, a 96-well plate containing compound titrations for testing, a 96-well DNA plate with reporter constructs to be tested, 96-well skirted PCR plates, and 96-well flat-bottom, black, fluorescent assay plates. […]

CCNTB1 = assay: In vitro transcription-translation (IVTT) assay, CCNTB1 reporter; details: HeLa S3 lysate, 2 hrs at 30° C.
Protocol: as §4
In vitro transcription-translation assay setup: Each assay includes a master mix containing lysate and shared components, a 96-well plate containing compound titrations for testing, a 96-well DNA plate with reporter constructs to be tested, 96-well skirted PCR plates, and 96-well flat-bottom, black, fluorescent assay plates. Reaction materials setup: (A) Master mix—15 mL conical tube (3 mL of HeLa S3 Lysate described above; 0.6 mL of ThermoFisher Accessory Proteins (#88882); 1.2 ml of ThermoFisher Reaction Mix (#88882); 0.54 mL of nuclease-free Water); (B) 96-Well Master Mix+Compound Plate (Half-log dilutions (30 μM−0.1 μM) of 4 compounds of interest are prepared in 100% DMSO); 96-Well DNA Plate (Five DNA constructs are plated into single columns within the plate. Row 1 of the column contains nuclease free H2O, all other wells contain 110 ng/μL plasmid DNA). Reactions are started by mixing 155 μL of master mix and 3.5 μL of compound serial dilutions, then 9.1 μL of master mix+compound mixture is aliquoted across 5 96-well plates. Reactions begin with final addition of 2 μL of DNA for a 11.1 μL reaction volume in each well. The entire plate is sealed, and incubated for 2 hrs at 30° C. After 2 hrs, quench the assay using 45 μL of PBS, and transfer 50 μL to a flat-bottom black microplate Quantify the sfGFP and mCherry signals from each well on each plate, taking 3 reads of each plate, and perform data analysis below.
In vitro transcription-translation assay data analysis: Each plate is read three times in channels for both sfGFP and mCherry signals. The average signal across these 3 reads is then calculated for further analysis. Control wells containing no DNA reporter are subtracted from reporter wells in the same column to remove auto-fluorescence of the lysate. Then, the ratio of sfGFP/mCherry is calculated per well, and these ratios are averaged across the triplicate experiments on the same plate. Finally, the ratio of each titration concentration is normalized to the no drug control to create the normalized stalling metric. […]

MCL-1 = assay: In vitro transcription-translation (IVTT) assay, MCL-1 reporter; details: IVTT, HeLa S3 lysate, 2 hrs at 30° C.; read-out: MCL1 IC50
Description: as §1, §2, §3, §4, §5

CCND1 = assay: In vitro transcription-translation (IVTT) assay, CCND1 reporter; details: IVTT, HeLa S3 lysate, 2 hrs at 30° C.
Description: as §1, §2, §3, §4, §5

Row | IC50 (CCNTB1) | IC50 (MCL-1) | IC50 (CCND1) | Structure (SMILES) | IC50 (MYC)
1 | < 10 µM | 10 to 20 µM | 20 to 30 µM | COc1ccc(C[C@H]2NC[C@H](O)[C@H]2OC(=O)NCCC(C)(C)O)cc1 [V190413, (2R,3S,4S)-4-hydroxy-2-[(4-methoxyphenyl)methyl]pyrrolidin-3-yl N-(3-hydroxy-3-methylbutyl)carbamate] | 10 to 20 µM
2 | < 10 µM | < 10 µM | < 10 µM | COc1ccc(C[C@H]2NC[C@H](O)[C@H]2OC(=O)NCc2ccc(Cn3cccn3)cc2)cc1 [V188314, (2R,3S,4S)-4-hydroxy-2-[(4-methoxyphenyl)methyl]pyrrolidin-3-yl N-{[4-(pyrazol-1-ylmethyl)phenyl]methyl}carbamate] | < 10 µM
3 | < 10 µM | < 10 µM | < 10 µM | O=C(NCC1CC1)O[C@@H]1[C@@H](O)CN[C@@H]1Cc1ccc(-c2c[nH]nn2)cc1 [V188327, (2R,3S,4S)-4-hydroxy-2-{[4-(1H−1,2,3-triazol-4-yl)phenyl]methyl}pyrrolidin-3-yl N-(cyclopropylmethyl)carbamate] | < 10 µM
4 | < 10 µM | < 10 µM | 10 to 20 µM | COc1ccc(C[C@H]2NC[C@H](O)[C@H]2OC(=O)NCC2(F)CC2)cc1 [V188381, (2R,3S,4S)-4-hydroxy-2-[(4-methoxyphenyl)methyl]pyrrolidin-3-yl N-[(1-fluorocyclopropyl)methyl]carbamate] | < 10 µM
5 | < 10 µM | < 10 µM | < 10 µM | COc1ccc(C[C@H]2NC[C@H](O)[C@H]2OC(=O)NCc2ccc(N)nc2)cc1 [V188316, (2R,3S,4S)-4-hydroxy-2-[(4-methoxyphenyl)methyl]pyrrolidin-3-yl N-[(6-aminopyridin-3-yl)methyl]carbamate] | < 10 µM
6 | < 10 µM | < 10 µM | < 10 µM | COc1ccc(C[C@H]2NC[C@H](O)[C@H]2OC(=O)NCC[C@@H]2CCN2)cc1 [V191920, (2R,3S,4S)-4-hydroxy-2-[(4-methoxyphenyl)methyl]pyrrolidin-3-yl N-{2-[(2S)-azetidin-2-yl]ethyl}carbamate] | < 10 µM
7 | < 10 µM | < 10 µM | < 10 µM | COc1ccc(C[C@H]2NC[C@H](O)[C@H]2OC(=O)NCc2ccc(N)nn2)cc1 [V188311, (2R,3S,4S)-4-hydroxy-2-[(4-methoxyphenyl)methyl]pyrrolidin-3-yl N-[(6-aminopyridazine-3-yl)methyl]carbamate] | < 10 µM
8 | < 10 µM | < 10 µM | 10 to 20 µM | COc1ccc(C[C@H]2NC[C@H](O)[C@H]2OC(=O)NCc2ccccc2C#N)cc1 [V191911, (2R,3S,4S)-4-hydroxy-2-[(4-methoxyphenyl)methyl]pyrrolidin-3-yl N-[(2-cyanophenyl)methyl]carbamate] | < 10 µM
9 | < 10 µM | 20 to 30 µM | 20 to 30 µM | COc1ccc(C[C@H]2NC[C@H](O)[C@H]2OC(=O)NCC23CC(N)(C2)C3)cc1 [V188323, (2R,3S,4S)-4-hydroxy-2-[(4-methoxyphenyl)methyl]pyrrolidin-3-yl N-({3-aminobicyclo[1.1.1]pentan-1-yl}methyl)carbamate] | 10 to 20 µM
10 | < 10 µM | < 10 µM | < 10 µM | COc1ccc(C[C@H]2NC[C@H](O)[C@H]2OC(=O)NCc2ccc(CN)cc2)cc1 [V188322, (2R,3S,4S)-4-hydroxy-2-[(4-methoxyphenyl)methyl]pyrrolidin-3-yl N-{[4-(aminomethyl)phenyl]methyl}carbamate] | < 10 µM
11 | < 10 µM | < 10 µM | < 10 µM | COc1ccc(C[C@H]2NC[C@H](O)[C@H]2OC(=O)NCCc2cnoc2)cc1 [V190449, (2R,3S,4S)-4-hydroxy-2-[(4-methoxyphenyl)methyl]pyrrolidin-3-yl N-[2-(1,2-oxazol-4-yl)ethyl]carbamate] | < 10 µM
12 | 20 to 30 µM | > 30 µM | > 30 µM | COc1ccc(C[C@H]2NC[C@H](O)[C@H]2OC(=O)NCCc2c(C)noc2C)cc1 [V190414, (2R,3S,4S)-4-hydroxy-2-[(4-methoxyphenyl)methyl]pyrrolidin-3-yl N-[2-(3,5-dimethyl-1,2-oxazol-4-yl)ethyl]carbamate] | > 30 µM
13 | < 10 µM | < 10 µM | < 10 µM | COc1ccc(C[C@H]2NC[C@H](O)[C@H]2OC(=O)NCc2ccc(C#N)cc2)cc1 [V188377, (2R,3S,4S)-4-hydroxy-2-[(4-methoxyphenyl)methyl]pyrrolidin-3-yl N-[(4-cyanophenyl)methyl]carbamate] | < 10 µM
14 | < 10 µM | < 10 µM | 10 to 20 µM | O=C(NCc1cccc(F)c1)O[C@@H]1[C@@H](O)CN[C@@H]1Cc1ccc(F)cc1 [V190506, (2R,3S,4S)-2-[(4-fluorophenyl)methyl]-4-hydroxypyrrolidin-3-yl N-[(3-fluorophenyl)methyl]carbamate] | < 10 µM
15 | < 10 µM | < 10 µM | < 10 µM | COc1ccc(C[C@H]2NC[C@H](O)[C@H]2OC(=O)NCc2ccc(NS(C)(=O)=O)cc2)cc1 [V191955, (2R,3S,4S)-4-hydroxy-2-[(4-methoxyphenyl)methyl]pyrrolidin-3-yl N-[(4-methanesulfonamidophenyl)methyl]carbamate] | < 10 µM
16 | < 10 µM | < 10 µM | < 10 µM | COc1ccc(C[C@H]2NC[C@H](O)[C@H]2OC(=O)NCc2ccc(F)c(C#N)c2)cc1 [V188310, (2R,3S,4S)-4-hydroxy-2-[(4-methoxyphenyl)methyl]pyrrolidin-3-yl N-[(3-cyano-4-fluorophenyl)methyl]carbamate] | < 10 µM
17 | < 10 µM | < 10 µM | 10 to 20 µM | CC(F)(F)c1ccc(C[C@H]2NC[C@H](O)[C@H]2OC(=O)NCC[C@@H]2CCCN2)cc1 [V191885, (2R,3S,4S)-2-{[4-(1,1-difluoroethyl)phenyl]methyl}-4-hydroxypyrrolidin-3-yl N-{2-[(2S)-pyrrolidin-2-yl]ethyl}carbamate] | < 10 µM
